Source: patent US20060100431A1, “Biologically active compounds” (Amura Therapeutics Limited, priority 2002, published 2006)

Experiments:
Assay type in all cases: biochemical
[1] = target: T1, human cathepsin B (Homo sapiens, UniProt P07858); experiment: Cathepsin B peptidase activity assay (Ki); settings: read-out: Ki, inhibitors of cathepsin B
T1 construct: purchased CN Biosciences
Procedure: Unless otherwise stated, all general chemicals and biochemicals were purchased from either the Sigma Chemical Company, Poole, Dorset, U.K or from Fisher Scientific UK, Loughborough, Leicestershire, U.K. Absorbance assays were carried out in flat-bottomed 96-well plates (Spectra; Greiner Bio-One Ltd., Stonehouse, Gloucestershire, U.K.) using a SpectraMax PLUS384 plate reader (Molecular Devices, Crawley, U.K.). […] Fluorescence assays were monitored using a SpectraMax Gemini fluorescence plate reader (Molecular Devices). For substrates employing either a 7-amino-4-methylcoumarin (AMC) or a 7-amino-4-trifluoromethylcoumarin (AFC) fluorophore, assays were monitored at an excitation wavelength of 365 nm and an emission wavelength of 450 nm and the fluorescence plate reader calibrated with AMC. For substrates employing a 3-amino-benzoyl (Abz) fluorophore, assays were monitored at an excitation wavelength of 310 nm and an emission wavelength of 445 nm; the fluorescence plate reader calibrated with 3-amino-benzamide (Fluka). Unless otherwise indicated, all the peptidase substrates were purchased from Bachem UK, St Helens, Merseyside, UK. […] Hydroxyethylpiperazine ethanesulfonate (HEPES), tris-hydroxylmethyl aminomethane (tris) base, bis-tris-propane and all the biological detergents (e.g. CHAPS, zwittergents, etc.) were purchased from CN Biosciences UK, Beeston, Nottinghamshire, U.K. Glycerol was purchased from Amersham Pharmacia Biotech, Little Chalfont, Buckinghamshire, U.K. Stock solutions of substrate or inhibitor were made up to 10 mM in 100% dimethylsulfoxide (DMSO) (Rathburns, Glasgow, U.K.) and diluted as appropriately required. In all cases the DMSO concentration in the assays was maintained at less than 1% (vol./vol.).
Enzyme was added as required to initiate the reaction and the activity, as judged by the change in fluorescence upon conversion of substrate to product, was monitored over time. All assays were carried out at 25±1° C.
Bovine cathepsin S, human cathepsin L, human cathepsin H and human cathepsin B were obtained from CN Biosciences. Recombinant human cathepsin S, human cathepsin K and human cathepsin X were obtained from Dr. Boris Turk (Josef Stefan Institute, Ljubljana, Slovenia). Unless otherwise stated, all peptidase activity assays were carried out in 10 mM bis-tris-propane (BTP), pH 6.5 containing 1 mM EDTA, 5 mM 2-mercaptoethanol and 1 mM CaCl2.
The apparent inhibition constant (Ki) for each compound was determined on the basis that inhibition was reversible and occurred by a pure-competitive mechanism. […] [formula]
[formula] Ki^app=Ki(1+[So]/KM^app) (4)
Curves were fitted by non-linear regression analysis (Prism) using a fixed value for the enzyme concentration.

[2] = target: T2, human cathepsin L (Homo sapiens, UniProt P07711); experiment: Cathepsin L peptidase activity assay (Ki); settings: read-out: Ki, inhibitors of cathepsin L
T2 construct: purchased CN Biosciences
How it was run: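 Human cathepsin L at 1 nM with Ac-Phe-Arg-AMC at its KM^app (~20 μM) in 10 mM bis-tris-propane pH 6.5, 1 mM EDTA, 5 mM 2-mercaptoethanol, 1 mM CaCl2, DMSO <1%, 25±1° C. Reaction enzyme-initiated; AMC fluorescence (ex 365/em 450 nm) monitored over time.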

[3] = target: T3, CPB2.8ΔCTE (Leishmania mexicana, UniProt P36400); experiment: Leishmania mexicana cysteine protease B (CPB) peptidase activity assay (Ki); settings: Ki, inhibitors of Leismania mexicana CPB protease
T3 construct: Wild-type recombinant CPB without the C-terminal extention (i.e. CPB2.8ΔCTE); Dr. Jeremy Mottram (Wellcome Centre for Molecular Parasitology, University of Glasgow)
How it was run: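 Recombinant CPB2.8ΔCTE (0.25 nM) was assayed in 100 mM sodium acetate pH 5.5 with 1 mM EDTA, 200 mM NaCl and 10 mM DTT at 25 °C, DMSO <1%, enzyme added to start. Rates were taken from continuous fluorescence slopes; apparent Ki was fitted assuming reversible, pure-competitive inhibition.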

[4] = target: Wild-type cruzipain (Trypanosoma cruzi, UniProt P25779); experiment: Trypanosoma cruzi cruzipain peptidase activity assay (Ki); settings: read-out: Ki, inhibitors of cruzain and cruzipains
How it was run: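 Native cruzipain from T. cruzi Dm28 epimastigotes, 2.5 nM, in 100 mM sodium phosphate pH 6.75 with 1 mM EDTA and 10 mM L-cysteine, 25 °C, DMSO <1%. Rates taken from continuous fluorogenic substrate read; Ki by regression assuming reversible pure-competitive inhibition.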

T3 sequence (P36400 126-343, stated change not applied): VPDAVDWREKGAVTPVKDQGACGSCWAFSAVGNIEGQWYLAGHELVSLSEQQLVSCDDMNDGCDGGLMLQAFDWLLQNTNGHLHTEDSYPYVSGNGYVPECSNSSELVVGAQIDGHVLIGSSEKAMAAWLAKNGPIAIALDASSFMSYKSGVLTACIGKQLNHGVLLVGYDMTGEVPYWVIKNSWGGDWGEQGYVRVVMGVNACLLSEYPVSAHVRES
T2 sequence (P07711 114-333): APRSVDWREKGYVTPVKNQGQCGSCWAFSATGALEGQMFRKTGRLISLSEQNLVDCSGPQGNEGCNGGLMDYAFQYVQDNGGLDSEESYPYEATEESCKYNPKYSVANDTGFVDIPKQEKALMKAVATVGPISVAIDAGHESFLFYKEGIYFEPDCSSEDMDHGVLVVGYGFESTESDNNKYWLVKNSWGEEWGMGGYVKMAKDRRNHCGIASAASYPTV
Wild-type cruzipain, sequence (P25779 whole entry): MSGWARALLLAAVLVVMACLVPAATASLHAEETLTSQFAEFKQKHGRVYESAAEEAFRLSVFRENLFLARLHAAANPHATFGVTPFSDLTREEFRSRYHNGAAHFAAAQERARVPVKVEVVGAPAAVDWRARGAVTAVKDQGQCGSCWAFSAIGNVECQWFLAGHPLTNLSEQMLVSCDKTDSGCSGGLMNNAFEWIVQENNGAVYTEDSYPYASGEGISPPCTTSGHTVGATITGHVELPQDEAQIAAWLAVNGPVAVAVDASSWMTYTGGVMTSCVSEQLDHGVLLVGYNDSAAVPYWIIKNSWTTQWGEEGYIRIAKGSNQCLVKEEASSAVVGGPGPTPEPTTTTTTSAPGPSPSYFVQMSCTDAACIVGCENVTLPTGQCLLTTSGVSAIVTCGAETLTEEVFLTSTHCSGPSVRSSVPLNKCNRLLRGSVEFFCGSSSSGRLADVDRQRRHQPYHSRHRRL

| Compound | Ki [1] | Ki [2] | Ki [4] | Ki [3] |
| --- | --- | --- | --- | --- |
| CC(C)C[C@H](NC(=O)c1ccc(C(C)(C)C)cc1)C(=O)N1CC[C@@H]2[C@H]1C(=O)CN2C(=O)c1csc2ccccc12 [Example 31] | < 5 µM | < 5 µM | < 5 µM | < 5 µM |
| CC(C)C[C@H](NC(=O)c1cc2ccccc2s1)C(=O)N1CC[C@@H]2[C@H]1C(=O)CN2C(=O)c1cccnc1 [Example 15, (3aR,6aS)-Benzo[b]thiophene-2-carboxylic acid {(1S)-3-methyl-1-[6-oxo-4-(pyridine-3-carbonyl)-hexahydro-pyrrolo[3,2-b]pyrrole-1-carbonyl]-butyl}-amide] | < 5 µM | < 5 µM | < 5 µM |  |
| O=C(N[C@@H](CC1CCCCC1)C(=O)N1CC[C@@H]2[C@H]1C(=O)CN2C(=O)c1cccc2ccccc12)c1ccsc1 [Example 255, (3aR,6aS)-Thiophene-3-carboxylic acid {(1S)-1-cyclohexylmethyl-2-[4-(naphthalene-1-carbonyl)-6-oxo-hexahydro-pyrrolo[3,2-b]pyrrol-1-yl]-2-oxo-ethyl}-amide] | < 5 µM | < 5 µM | < 5 µM |  |
| CC(C)C[C@H](NC(=O)C(c1ccccc1)c1ccccc1)C(=O)N1CC[C@@H]2[C@H]1C(=O)CN2C(=O)c1csc2ccccc12 [Example 271, (3aR,6aS)-N-{(1S)-1-[4-(Benzo[b]thiophene-3-carbonyl)-6-oxo-hexahydro-pyrrolo[3,2-b]pyrrole-1-carbonyl]-3-methyl-butyl}-2,2-diphenyl-acetamide] | < 5 µM | < 5 µM | < 5 µM | < 5 µM |
| O=C(N[C@@H](CC1CCCCC1)C(=O)N1CC[C@@H]2[C@H]1C(=O)CN2C(=O)c1ccc(-c2ccccc2)s1)c1ccsc1 [Example 258, (3aR,6aS)-Thiophene-3-carboxylic acid {(1S)-1-cyclohexylmethyl-2-oxo-2-[6-oxo-4-(5-phenyl-thiophene-2-carbonyl)-hexahydro-pyrrolo[3,2-b]pyrrole-1-yl]-ethyl}-amide] | < 5 µM | < 5 µM |  |  |
| O=C(N[C@@H](CSCc1ccccc1)C(=O)N1CC[C@@H]2[C@H]1C(=O)CN2C(=O)c1ccccc1)c1ccsc1 [Example 251, (3aR,6aS)-Thiophene-3-carboxylic acid [(1R)-2-(4-benzoyl-6-oxo-hexahydro-pyrrolo[3,2-b]pyrrole-1-yl)-1-benzylsulfanylmethyl-2-oxo-ethyl]-amide] | < 5 µM | < 5 µM |  |  |
| O=C(N[C@@H](CC1CCCCC1)C(=O)N1CC[C@@H]2[C@H]1C(=O)CN2C(=O)c1ccccc1)c1csc2ccccc12 [Example 254, (3aR,6aS)-Benzo[b]thiophene-3-carboxylic acid [(1S)-2-(4-benzoyl-6-oxo-hexahydro-pyrrolo[3,2-b]pyrrole-1-yl)-1-cyclohexylmethyl-2-oxo-ethyl]-amide] | < 5 µM | < 5 µM | < 5 µM |  |
| CC(C)C[C@H](NC(=O)c1ccc(C(C)(C)C)cc1)C(=O)N1CC[C@@H]2[C@H]1C(=O)CN2C(=O)c1cncc(-c2cccs2)c1 [Example 35, (3aR,6aS)-4-tert-Butyl-N-{(1S)-3-methyl-1-[6-oxo-4-(5-thiophen-2-yl-pyridine-3-carbonyl)-hexahydro-pyrrolo[3,2-b]pyrrole-1-carbonyl]-butyl}-benzamide] | < 5 µM |  | < 5 µM | < 5 µM |

Continued, in another order:

| Ki [1] | Ki [2] | Ki [4] | Compound | Ki [3] |
| --- | --- | --- | --- | --- |
| < 5 µM | < 5 µM |  | Cc1cccc(C(=O)N2CC(=O)[C@@H]3[C@H]2CCN3C(=O)[C@H](CSCc2ccccc2)NC(=O)c2ccsc2)c1 [Example 275, (3aR,6aS)-Thiophene-3-carboxylic acid {(1R)-1-benzylsulfanylmethyl-2-[4-(3-methyl-benzoyl)-6-oxo-hexahydro-pyrrolo[3,2-b]pyrrol-1-yl]-2-oxo-ethyl}-amide] |  |
| < 5 µM | < 5 µM |  | CS(=O)(=O)c1cccc(C(=O)N2CC(=O)[C@@H]3[C@H]2CCN3C(=O)[C@H](CSCc2ccccc2)NC(=O)c2ccsc2)c1 [Example 262, (3aR,6aS)-Thiophene-3-carboxylic acid {(1R)-1-benzylsulfanylmethyl-2-(4-(3-methanesulfonyl-benzoyl)-6-oxo-hexahydro-pyrrolo[3,2-b]pyrrol-1-yl)-2-oxo-ethyl}-amide] |  |
| < 5 µM | < 5 µM |  | O=C(N[C@@H](CC1CCCCC1)C(=O)N1CC[C@@H]2[C@H]1C(=O)CN2C(=O)c1ccccc1)c1cccc(Oc2ccccc2)c1 [Example 259, (3aR,6aS)-N-[(1S)-2-(4-Benzoyl-6-oxo-hexahydro-pyrrolo[3,2-b]pyrrol-1-yl)-1-cyclohexylmethyl-2-oxo-ethyl]-3-phenoxy-benzamide] |  |
| < 5 µM | < 5 µM | < 5 µM | O=C(N[C@@H](CC1CCCCC1)C(=O)N1CC[C@@H]2[C@H]1C(=O)CN2C(=O)c1ccccc1)c1ccccc1 [Example 290, (3aR,6aS)-N-[(1S)-2-(4-Benzoyl-6-oxo-hexahydro-pyrrolo[3,2-b]pyrrol-1-yl)-1-cyclohexylmethyl-2-oxo-ethyl]-benzamide] |  |
| < 5 µM | < 5 µM |  | O=C(N[C@@H](CSCc1ccccc1)C(=O)N1CC[C@@H]2[C@H]1C(=O)CN2C(=O)c1ccccc1)C(c1ccccc1)c1ccccc1 [Example 269, (3aR,6aS)-N-[(1R)-2-(4-Benzoyl-6-oxo-hexahydro-pyrrolo[3,2-b]pyrrol-1-yl)-1-benzylsulfanylmethyl-2-oxo-ethyl]-2,2-diphenyl-acetamide] |  |
| < 5 µM | < 5 µM |  | O=C(N[C@@H](CSCc1ccccc1)C(=O)N1CC[C@@H]2[C@H]1C(=O)CN2C(=O)c1ccccc1)c1ccc2ncsc2c1 [Example 281, (3aR,6aS)-Benzothiazole-6-carboxylic acid [(1R)-2-(4-benzoyl-6-oxo-hexahydro-pyrrolo[3,2-b]pyrrole-1-yl)-1-benzylsulfanylmethyl-2-oxo-ethyl]-amide] |  |
| < 5 µM | < 5 µM |  | O=C(N[C@@H](CSCc1ccccc1)C(=O)N1CC[C@@H]2[C@H]1C(=O)CN2C(=O)C1CCCCC1)c1ccsc1 [Example 273, (3aR,6aS)-Thiophene-3-carboxylic acid [(1R)-1-benzylsulfanylmethyl-2-(4-cyclohexanecarbonyl-6-oxo-hexahydro-pyrrolo[3,2-b]pyrrol-1-yl)-2-oxo-ethyl]-amide] |  |
| < 5 µM | < 5 µM | < 5 µM | CS(=O)(=O)c1ccccc1C(=O)N1CC(=O)[C@@H]2[C@H]1CCN2C(=O)[C@H](CSCc1ccccc1)NC(=O)c1ccsc1 [Example 261, (3aR,6aS)-Thiophene-3-carboxylic acid {(1R)-1-benzylsulfanylmethyl-2-[4-(2-methanesulfonyl-benzoyl)-6-oxo-hexahydro-pyrrolo[3,2-b]pyrrol-1-yl]-2-oxo-ethyl}-amide] |  |
| < 5 µM | < 5 µM | < 5 µM | Cc1cccc(C(=O)N2CC(=O)[C@@H]3[C@H]2CCN3C(=O)[C@H](CC2CCCCC2)NC(=O)c2ccsc2)c1 [Example 292, (3aR,6aS)-Thiophene-3-carboxylic acid {(1S)-1-cyclohexylmethyl-2-[4-(3-methyl-benzoyl)-6-oxo-hexahydro-pyrrolo[3,2-b]pyrrol-1-yl]-2-oxo-ethyl}-amide] |  |
